For this assay, the system named is NF-κB. Put plainly: NF-κB-dependent luciferase reporter gene assay in UV-C exposed HeLa cells. In kind it is cell-based, human. On the procedure: HeLa cells were transfected with a NF-κB-dependent reporter gene and exposed to UV-C 24 hours after transfection. Pretreatment with Astaxanthin was done 3 hours prior to irradiation, where indicated. Cells were harvested and luciferase activity was measured 14-18 hours following exposure. The ratio between Firefly and Renilla luciferase activity is represented as fold activation over the activity in unstimulated control cells. The standard error is based on two identical experiments.
The human […] cell line Hela Tet/off was cultured in MEM alpha medium supplemented with 10% fetal calf serum, penicillin and streptomycin (Gibco Grand Island, N.Y.). The day before transfection, cells were plated on 6 cm dishes in a medium containing 2.5% fetal calf serum. On the day of transfection, the cell culture medium was changed to fresh medium (2.5% fetal calf serum).
A stock solution of Astaxanthin was prepared by dissolving synthetic Astaxanthin (Sigma) in 99.6% ethanol. The concentration of Astaxanthin was measured by spectrophotometry, and the absorbance maximum at 474-479 run was used to calculate the concentration, according to the formula: Absmax/210.
The 6XκB-Luc plasmid contains a firefly luciferase reporter gene driven by 6 NF-κB binding sites cloned upstream of a TK promoter (Meyer et al. 1993). […]

In the case of `CC1=C(/C=C/C(C)=C/C=C/C(C)=C/C=C/C=C(C)/C=C/C=C(C)/C=C/C2=C(C)C(=O)[C@@H](O)CC2(C)C)C(C)(C)C[C@H](O)C1=O` [Astaxanthin], for the setting “HeLa cells transfected with NF-κB-dependent reporter gene, UV-C, pretreatment 3 hours prior to irradiation (FIG. 1)”, the “effect on the activation of NF-κB effected by UV exposure” value is on record as “inhibits the activation of NF-κB effected by UV exposure”. Also, the “repression of UV-C induced activation of NF-κB-dependent reporter gene” value (HeLa cells, 6xκB-Luc reporter, UV-C 10 J/m^2, Astaxanthin pretreatment 3 hours at the highest concentration, luciferase 14-18 hours after exposure) was approximately 3 fold.
